The values that follow come from US20090055945A1, “Method for Producing Nuclear-Transplanted Egg” (priority 2005, published 2009).

Molecules are shown by their SMILES.

Assay [1] relates to immortalized bovine mammary epithelial cells (MECL) or bovine fetal fibroblasts (BFF). To be noted: MECL or BFF treated before nuclear transfer; Non-patent Document 2; cited from earlier work.
For assay [2], the system named is oocytes injected with mature sperm (ICSI). The assay is described as follows: Paternal genome DNA methylation, mature sperm injection (ICSI). It is filed as cell-based, mouse. To be noted: 10 μM 5-azacytidine, 20 hours. The method, then:
The oocytes injected with the nuclear domains of round spermatids obtained by ROSI were cultured for 20 hours in the presence of 20 ng/ml of demecolcine in a medium containing 10 μM 5-azacytidine (5-aza) or 500 nM TSA as an anti-methylation agent. Similarly, injection of mature sperms was carried out (ICSI (intracytoplasmic sperm injection)). Specifically, heads of sperms were separated from the tails by applying pulses to the head-tail junctions by means of a piezo-driven pipette (PrimeTech), and injected into oocytes. The oocytes were not subjected to activation in this case. […]
For quantitative analysis of pronuclear DNA methylation levels, fluorescence images were subjected to densitometric analysis using the program Image-J from the National Institute of Health (http://rsb.info.nih.gov/ij/). For each pronucleus, the relative intensity of methylation of the paternal genome was calculated as a percentage of the fluorescence intensity of the maternal genome. In Table 3, data with (b) and without (a) anti-methylation agent were statistically analyzed by Scheffe tests for multiple mean comparisons using the statistical program SPSS version 12.0 (SPSS Inc.). […]

Assay [3] relates to oocytes injected with nuclear domains of round spermatids (ROSI). Put plainly: Paternal genome DNA methylation, spermatid injection (ROSI). It is filed as cell-based, mouse. To be noted: Spermatid (ROSI); 10 μM 5-azacytidine, 20 hours. The method, then:
The oocytes injected with the nuclear domains of round spermatids obtained by ROSI were cultured for 20 hours in the presence of 20 ng/ml of demecolcine in a medium containing 10 μM 5-azacytidine (5-aza) or 500 nM TSA as an anti-methylation agent. Similarly, injection of mature sperms was carried out (ICSI (intracytoplasmic sperm injection)). Specifically, heads of sperms were separated from the tails by applying pulses to the head-tail junctions by means of a piezo-driven pipette (PrimeTech), and injected into oocytes. The oocytes were not subjected to activation in this case.
The cultured oocytes injected with nuclei were fixed in PBS containing 4% paraformaldehyde at 4° C. overnight, washed in PBS containing 0.1% polyvinyl alcohol (PVA), and blocked in PBS containing 3% bovine serum albumin (BSA) and 0.2% Triton X-100 at 4° C. overnight. Subsequent steps were carried out at room temperature. The fixed oocytes injected with nuclei were permeabilized by treating with 0.2% Triton X-100 in PBS at room temperature. The oocytes were then treated with 2N HCl at room temperature for 50 minutes, neutralized in 100 mM Tris-HCl buffer (pH 8.0) (Non-patent Document 15), and extensively washed with PBS containing 1% BSA.
Next, incubation. with an anti-5-methylcytidine antibody (Eurogentec) in PBS containing 0.1% PVA was carried out for 2 to 3 hours. After extensively being washed, oocytes were stained with Alexa Flour-488 secondary antibody (Molecular Probes), stained with 5 μg/ml 4′,6′-diamidino-2-phenylindole (DAPI) for 30 minutes, and mounted using Vectashield (Vector Laboratory). The specimens were observed using Olympus BX51 microscope (Olympus). All images were captured with DP70 Olympus digital camera using Olympus Analysis software to apply colors to DAPI-stained DNA and merged images.
For quantitative analysis of pronuclear DNA methylation levels, fluorescence images were subjected to densitometric analysis using the program Image-J from the National Institute of Health (http://rsb.info.nih.gov/ij/). For each pronucleus, the relative intensity of methylation of the paternal genome was calculated as a percentage of the fluorescence intensity of the maternal genome. In Table 3, data with (b) and without (a) anti-methylation agent were statistically analyzed by Scheffe tests for multiple mean comparisons using the statistical program SPSS version 12.0 (SPSS Inc.). All percentile data were subjected to arcsine transformation prior to the statistical analysis.

Assay [4] has as its system nuclear transfer oocytes (nuclei from cumulus cells in enucleated oocytes). Put plainly: Expanded blastocyst formation of nuclear transfer oocytes (cumulus cell nuclei). It is filed as cell-based, mouse. To be noted: 5 μM apicidin. As to the method:
Production of cloned mice including production of nuclear transfer embryos was carried out according to the method as described in Non-patent Document 5. Briefly, pregnant mare serum gonadotrophin (PMSG) was first administered to 8-weeks-old female B6D2F1 (C57BL/6 XDBA/2) mice (Japan SLC) for superovulation treatment. Human choriogonadotropin (hCG) was administered after 48 hours. Oocytes were collected after 16 hours. Nuclei were removed from the collected unfertilized oocytes in the presence of 5 μg/ml of cytochalasin B using a micromanipulator (enucleation).
Next, cell membranes of cumulus cells from a B6D2F1 mouse as donor somatic cells suspended in a 1.2% polyvinylpyrrolidone (PVP) solution were destroyed using an injection pipette, and the nuclei were injected into the enucleated oocytes using a micromanipulator (nuclear transfer). A piezo drive apparatus (Prime Tech) was used to generate piezo-pulses for penetration of zona pellucida or cell membranes which is required for injection of nuclei.
The thus obtained nuclear transfer oocytes were cultured in a CO2 incubator at 37° C. for 30 minutes to 1 hour. The oocytes were then transferred to an oocyte activation solution (Ca^2+-free CZB medium supplemented with 5 mM strontium chloride (SrCl2) and 5 μg/ml of cytochalasin B (Non-patent Document 10)) containing 0.5, 5, 50 or 500 nM trichostatin A (hereinafter referred to as TSA) to artificially activate the oocytes and initiate the development. Activation of oocytes was confirmed 6 hours after the initiation of activation using pronuclei formation as an index. Activated nuclear transfer oocytes were transferred to KSOM medium (Specialty Media) containing TSA at the same concentration, and cultured for further 14 hours (for 20 hours after the initiation of activation) in the medium. For a control, dimethyl sulfoxide (DMSO), which was used for dissolving TSA, was used in place of TSA to produce the same concentration.
Then, the nuclear transfer embryos at the 2-cell stage were cultured in KSOM medium without TSA until 96 hours after the initiation of activation, and development into expanded blastocysts was observed. The development into expanded blastocyst was confirmed by culturing for 96 hours after the initiation of activation and then observing under a microscope one in which the volume of embryo was increased to result in expansion of the blastocyst and thinning of zona pellucida among blastocysts having blastocoels. 80 or more embryos were examined in each of the experimental groups of the respective concentrations.
The ratio of the developed blastocysts to the number of nuclear transfer oocytes used (blastocyst formation rate (%)) was determined. The ratio of the developed expanded blastocysts to the number of oocytes that initiated cleavage (i.e., developed into the 2-cell stage) among the reconstructed nuclear transfer oocytes (blastocyst formation rate (%)) was determined.
Nuclear transfer oocytes were produced by injecting nuclei from cumulus cells into enucleated oocytes according to the method as described in Example 1, cultured in KSOM medium containing TSA at a concentration of 5 nM for various periods of time (for 0, 24, 48 or 72 hour(s) from the initiation of activation), and then cultured in KSOM medium without TSA until 96 hours after the initiation of activation. Then, development into expanded blastocysts was observed and the blastocyst formation rate was determined. […]

Regarding `CCCC(=O)[O-].[Na+]` [sodium butyrate], the blastocyst development rate result in assay [1] is given as “increased”.

As to `Nc1ncn([C@@H]2O[C@H](CO)[C@@H](O)[C@H]2O)c(=O)n1` [5-aza, 5-azacytidine], the “Ratio of methylation level of paternal genome to maternal genome (%)” value in assay [2] was 17.5^b %; in assay [3], 54.9^b %.

As for `CCC(=O)CCCCC[C@@H]1NC(=O)[C@H]2CCCCN2C(=O)[C@H]([C@@H](C)CC)NC(=O)[C@H](Cc2cn(OC)c3ccccc23)NC1=O` [apicidin], in assay [4], the “increase in blastocyst formation rate vs control” value is on record as “about 2 fold”. Besides, the blastocyst formation rate in assay [4] (method of Example 1) came to 69.0%.
